Data reported in patent publication US20180193490A1, “Beta Amyloid Staging” (GE HEALTHCARE LIMITED, priority 2015, published 2018).

Target: T1, beta amyloid (Aβ) plaques in the brain (Homo sapiens, UniProt P05067)
T1 construct: from tissue; host or cells: brain of living subjects (cortex and striatum), in vivo PET
Test: Provisional SUVR analysis of GE067-026 PET images (Cortex ID, cortex and striatal VOIs)
Type: in vivo
Experimental: Some work has been performed to assess the quantitative SUVR measures from the GE067-026 cohort.
In an automated SUVR assessment methodology using GE software Cortex ID (J Lilja) PET images were quantitated using separate cortex and striatal VOIs. The SUVRs were determined for the cortical and striatal values using 3 different reference regions; whole cerebellum, cerebellar grey and pons.
Thresholding was determined by multiple methods to identify which method provided the greatest accuracy (See Setting SUVR thresholds)
The thresholds determined by ROC analysis for Phase 3 or above being abnormal gave the best sensitivity and specificity for cortical assessments. A similar approach gave the best sensitivity and specificity for the striatal assessments. Using the whole cerebellum as a reference region or pons as the reference region gave the best sensitivity and specificity (see Table 4).
Combining these thresholds to determine cortical and striatal positivity based upon SUVRpons values gave similar results to those see by BIE assessment. Of 5 C+S− cases 3 […] were Thal phase 3.
SUVR thresholds were set using two methods. • (1) Statistical determination • (2) Receiver operator characteristics
For statically determined thresholds the algorithm depicted in FIG. 1 was applied. Briefly, all cases were identified as negative or positive based on histopathology. For the cortex this was based on the GE067-026 standard of truth^2—abnormal or normal based on any regional Bielschowsky score>1.5=abnormal and all regional scores≤1.5=normal. For the striatum this was based on the identification of “Frequent” plaques by amyloid-β IHC (4G8). The threshold determinations are calculated in the file Cortex ID SUVR thresholds.xlsx. ^2 For the GE067-007 and -026 autopsy trials the primary endpoint was Bielschowsky silver stain (BSS) scores of CERAD based neuritic plaque density. 0=none, 1=sparse, 2=moderate and 3=frequent. Multiple measures were averaged and the arithmetic mean between none/sparse (normal) and moderate/frequent (abnormal=1.5. Any case with a regional BSS score>1.5 was deemed abnormal.
The SUVR means and standard deviations were calculated for normal and abnormal subjects for each of the SUVR measures; Cortex and striatum and for each of the SUVR reference regions. The threshold was determined to be the SUVR value at which the fractional standard deviation is equal between the two population means i.e. when the normal mean plus y times the normal SD is equal to the abnormal mean minus y times the abnormal SD.
A statistically based threshold was determined for abnormal and normal cases (based on histopathology) and applied to cortical and striatal SUVRs separately.
A variant of the above threshold was determined based upon the Thal phases. Thus the threshold for the cortex and striatum was determined between phase 0 and 1, between phase 1 and phase 2 . . . etc. This gave 15 threshold values (5 to discriminate each phase and 1 for each of the 3 reference regions; 15 in total)
This is an empirically determined threshold that by definition identifies the threshold that gives the best sensitivity and specificity.
Receiver operator characteristics analysis determines the sensitivity and specificity given a variable threshold. The most appropriate threshold is then determined by the maximum of the sum of the sensitivity and specificity.

T1 sequence (P05067 672-713 limits assumed): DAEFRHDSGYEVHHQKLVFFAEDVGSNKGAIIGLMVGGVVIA

CNc1ccc(-c2nc3ccc(O)cc3s2)cc1F [Flutemetamol]
Sum of sensitivity and specificity (CTX Phase 3 + ROC abnormality threshold, reference region Wcer): 182%
Sum of sensitivity and specificity (CTX Phase3 threshold, Average of reference regions): 161%
Sum of sensitivity and specificity (CTX Phase3 threshold, reference region Cer): 153%
Sum of sensitivity and specificity (CTX Phase3 threshold, reference region Pons): 166%
Sum of sensitivity and specificity (CTX Phase3 threshold, reference region Wcer): 166%
Sum of sensitivity and specificity (CTX Phase 4 + ROC abnormality threshold, Average of reference regions): 179%
Sum of sensitivity and specificity (CTX Phase 4 + ROC abnormality threshold, reference region Cer): 176%
Sum of sensitivity and specificity (CTX Phase 4 + ROC abnormality threshold, reference region Pons): 182%
Sum of sensitivity and specificity (CTX Phase 4 + ROC abnormality threshold, reference region Wcer): 180%
Sum of sensitivity and specificity (CTX Phase4 threshold, Average of reference regions): 177%
Sum of sensitivity and specificity (CTX Phase4 threshold, reference region Cer): 173%
Sum of sensitivity and specificity (CTX Phase4 threshold, reference region Pons): 179%
Sum of sensitivity and specificity (CTX Phase4 threshold, reference region Wcer): 179%
Sum of sensitivity and specificity (CTX Phase5 threshold, Average of reference regions): 136%
Sum of sensitivity and specificity (CTX Phase5 threshold, reference region Cer): 132%
Sum of sensitivity and specificity (CTX Phase5 threshold, reference region Pons): 142%
Sum of sensitivity and specificity (CTX Phase5 threshold, reference region Wcer): 133%
Sum of sensitivity and specificity (CTX abnormality statistical threshold, Average of reference regions): 176%
Sum of sensitivity and specificity (CTX abnormality statistical threshold, reference region Cer): 174%
Sum of sensitivity and specificity (CTX abnormality statistical threshold, reference region Pons): 175%
Sum of sensitivity and specificity (CTX abnormality statistical threshold, reference region Wcer): 180%
Sum of sensitivity and specificity (STR Phase1 threshold, Average of reference regions): 144%
Sum of sensitivity and specificity (STR Phase1 threshold, reference region Cer): 135%
Sum of sensitivity and specificity (STR Phase1 threshold, reference region Pons): 147%
Sum of sensitivity and specificity (STR Phase1 threshold, reference region Wcer): 150%
Sum of sensitivity and specificity (STR Phase2 threshold, Average of reference regions): 138%
Sum of sensitivity and specificity (STR Phase2 threshold, reference region Cer): 135%
Sum of sensitivity and specificity (STR Phase2 threshold, reference region Pons): 135%
Sum of sensitivity and specificity (STR Phase2 threshold, reference region Wcer): 144%
Sum of sensitivity and specificity (STR Phase3 threshold, Average of reference regions): 173%
Sum of sensitivity and specificity (STR Phase3 threshold, reference region Cer): 164%
Sum of sensitivity and specificity (STR Phase3 threshold, reference region Pons): 178%
Sum of sensitivity and specificity (STR Phase3 threshold, reference region Wcer): 179%
Sum of sensitivity and specificity (STR Phase4 threshold, Average of reference regions): 183%
Sum of sensitivity and specificity (STR Phase4 threshold, reference region Cer): 180%
Sum of sensitivity and specificity (STR Phase4 threshold, reference region Pons): 186%
Sum of sensitivity and specificity (STR Phase4 threshold, reference region Wcer): 183%
Sum of sensitivity and specificity (STR Phase5 threshold, Average of reference regions): 158%
Sum of sensitivity and specificity (STR Phase5 threshold, reference region Cer): 151%
Sum of sensitivity and specificity (STR Phase5 threshold, reference region Pons): 165%
Sum of sensitivity and specificity (STR Phase5 threshold, reference region Wcer): 157%
Sum of sensitivity and specificity (STR ROC abnormality threshold, Average of reference regions): 187%
Sum of sensitivity and specificity (STR ROC abnormality threshold, reference region Cer): 185%
Sum of sensitivity and specificity (STR ROC abnormality threshold, reference region Pons): 188%
Sum of sensitivity and specificity (STR ROC abnormality threshold, reference region Wcer): 187%
Sum of sensitivity and specificity (STR abnormality statistical threshold, Average of reference regions): 184%
Sum of sensitivity and specificity (STR abnormality statistical threshold, reference region Cer): 182%
Sum of sensitivity and specificity (STR abnormality statistical threshold, reference region Pons): 187%
Sum of sensitivity and specificity (STR abnormality statistical threshold, reference region Wcer): 185%
Share of C+S− cases that were Thal phase 3 (SUVRpons values): 66%
C+S− cases by SUVR thresholds (SUVRpons values, all Thal phases): 5
Thal phase 3 C+S− cases by SUVR analysis in common with those identified by BIE assessment (of the 3 Thal phase 3 C+S− cases by SUVR): two
